Calls of active or inactive are those of the source.
Key:
[1] = luciferase reporter signal suppression in cells – H4 neuroglioma cells, luminescence, dose response (AID 1990); format: functional, cell-based
[2] = Luminescence Cell-Based Dose Response HTS to Identify Inhibitors of 5'UTR Stem-Loop Driven Prion Protein mRNA Translation in H4 Neuroglioblastoma Cells. [Related pubchem assays: 1827 (Project Summary), 1813 (Primary HTS)]; format: functional
[3] = alpha-synuclein stem-loop luciferase translation blockers – H4 neuroglioma cells, luminescence, confirmation (AID 1988); format: functional, cell-based
[4] = Luminescence Cell-Based Dose Retest to Confirm Inhibitors of Cancer Stem Cells. [Related pubchem assays (depositor defined):AID2717, AID2721]; format: functional; conditions: Homo sapiens
Vero [5] = experiment: cells; format: functional, cell-based; conditions: Chlorocebus sabaeus
Vero [6] = experiment: cells; format: functional; conditions: Chlorocebus sabaeus
[7] = target: Lysine-specific demethylase 4C (Homo sapiens, UniProt Q9H3R0); experiment: inhibition of JMJD2C H3K9me3 demethylation – biochemical, DELFIA europium, cherry-picked samples, dose response (AID 488835); format: functional
Chain of Lysine-specific demethylase 4C (Q9H3R0 whole entry, the tested form may be a part): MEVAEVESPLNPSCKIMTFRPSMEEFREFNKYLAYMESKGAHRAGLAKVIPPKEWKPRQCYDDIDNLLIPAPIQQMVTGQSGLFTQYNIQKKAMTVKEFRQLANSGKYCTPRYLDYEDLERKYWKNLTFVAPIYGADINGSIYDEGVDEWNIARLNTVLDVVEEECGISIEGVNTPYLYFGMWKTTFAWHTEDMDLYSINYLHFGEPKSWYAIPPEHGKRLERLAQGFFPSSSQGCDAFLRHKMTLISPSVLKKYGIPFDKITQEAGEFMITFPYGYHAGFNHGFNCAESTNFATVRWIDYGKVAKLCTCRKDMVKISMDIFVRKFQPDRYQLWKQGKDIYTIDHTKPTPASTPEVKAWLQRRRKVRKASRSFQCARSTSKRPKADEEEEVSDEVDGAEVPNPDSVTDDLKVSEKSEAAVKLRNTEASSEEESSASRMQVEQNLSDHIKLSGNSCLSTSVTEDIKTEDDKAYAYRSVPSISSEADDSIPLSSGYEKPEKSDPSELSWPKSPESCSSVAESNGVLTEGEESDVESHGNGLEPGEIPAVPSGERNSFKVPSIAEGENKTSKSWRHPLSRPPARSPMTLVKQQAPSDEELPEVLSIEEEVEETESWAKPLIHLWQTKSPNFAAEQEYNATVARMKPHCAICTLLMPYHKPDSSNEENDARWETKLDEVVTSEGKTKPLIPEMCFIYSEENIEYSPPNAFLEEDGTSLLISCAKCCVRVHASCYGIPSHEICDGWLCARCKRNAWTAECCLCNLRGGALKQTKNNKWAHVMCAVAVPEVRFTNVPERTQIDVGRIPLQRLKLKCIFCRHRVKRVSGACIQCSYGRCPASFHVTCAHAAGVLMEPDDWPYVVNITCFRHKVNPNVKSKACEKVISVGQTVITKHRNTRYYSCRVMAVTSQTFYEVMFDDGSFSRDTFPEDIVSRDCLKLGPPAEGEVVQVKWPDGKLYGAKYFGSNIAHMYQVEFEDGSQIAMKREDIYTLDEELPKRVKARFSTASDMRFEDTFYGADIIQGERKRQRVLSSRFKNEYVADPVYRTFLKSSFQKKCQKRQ

[8] = target: T1, Nucleotide-binding oligomerization domain-containing protein 1 (Homo sapiens, UniProt Q9Y239); experiment: SAR analysis of compounds that inhibit NOD1 - Set 3. [Related pubchem assays (depositor defined):AID1566, AID1575, AID1578, AID1849, AID1852, AID2333, AID2335, AID2466]; format: functional
T1 sequence (Q9Y239 whole entry): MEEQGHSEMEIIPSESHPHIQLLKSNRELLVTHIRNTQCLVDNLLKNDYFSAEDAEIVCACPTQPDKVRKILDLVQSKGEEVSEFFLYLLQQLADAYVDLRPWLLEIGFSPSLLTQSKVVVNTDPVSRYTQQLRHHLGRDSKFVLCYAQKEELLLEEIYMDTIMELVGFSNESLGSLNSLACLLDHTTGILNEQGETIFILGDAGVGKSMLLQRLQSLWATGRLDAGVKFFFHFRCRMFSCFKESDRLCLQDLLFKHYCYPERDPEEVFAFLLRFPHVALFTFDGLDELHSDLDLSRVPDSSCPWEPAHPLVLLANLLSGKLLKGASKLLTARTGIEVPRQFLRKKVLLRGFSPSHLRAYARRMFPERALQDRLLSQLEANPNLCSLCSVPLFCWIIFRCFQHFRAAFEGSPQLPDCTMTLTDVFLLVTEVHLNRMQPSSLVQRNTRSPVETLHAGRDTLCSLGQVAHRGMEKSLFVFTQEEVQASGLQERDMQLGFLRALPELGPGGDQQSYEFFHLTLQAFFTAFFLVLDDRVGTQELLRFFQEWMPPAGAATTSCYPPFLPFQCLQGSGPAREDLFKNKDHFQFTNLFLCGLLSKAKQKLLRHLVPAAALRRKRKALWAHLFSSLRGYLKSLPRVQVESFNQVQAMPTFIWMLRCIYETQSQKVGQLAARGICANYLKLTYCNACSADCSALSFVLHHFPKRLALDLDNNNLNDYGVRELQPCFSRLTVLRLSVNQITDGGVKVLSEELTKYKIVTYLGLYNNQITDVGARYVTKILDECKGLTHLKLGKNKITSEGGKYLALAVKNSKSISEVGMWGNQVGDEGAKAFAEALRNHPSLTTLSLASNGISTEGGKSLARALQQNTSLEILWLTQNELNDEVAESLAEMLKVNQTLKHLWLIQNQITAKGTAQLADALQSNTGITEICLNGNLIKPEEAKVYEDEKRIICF

Tumor necrosis factor [9] = target: T2, Tumor necrosis factor (Homo sapiens, UniProt P01375); experiment: analog potency on TNFa NF-kB signaling – cell-based, set 3, SAR follow-up (AID 2801); format: functional
T2 sequence (P01375 whole entry): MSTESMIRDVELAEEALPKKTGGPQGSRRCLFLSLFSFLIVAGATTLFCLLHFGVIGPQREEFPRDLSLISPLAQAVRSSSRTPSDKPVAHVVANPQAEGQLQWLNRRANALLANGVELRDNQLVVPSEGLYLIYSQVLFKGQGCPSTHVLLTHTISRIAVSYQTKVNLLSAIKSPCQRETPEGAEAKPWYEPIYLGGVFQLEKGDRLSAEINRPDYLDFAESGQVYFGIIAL

HEK293 [10] = experiment: SAR analysis of compounds that are cytotoxic to HEK293 - Set 3. [Related pubchem assays (depositor defined):AID1575, AID1578, AID1848, AID1849, AID2001, AID2333, AID2334, AID2335, AID2337, AID2469]; format: functional, cell-based; conditions: Homo sapiens
[11] = target: T3, Nucleotide-binding oligomerization domain-containing protein 2 (Homo sapiens, UniProt Q9HC29); experiment: inhibition of MDP-driven NOD2 NF-kB reporter – cell-based, set 3, SAR follow-up (AID 2799); format: functional
T3 sequence (Q9HC29 whole entry, the tested form may be a part): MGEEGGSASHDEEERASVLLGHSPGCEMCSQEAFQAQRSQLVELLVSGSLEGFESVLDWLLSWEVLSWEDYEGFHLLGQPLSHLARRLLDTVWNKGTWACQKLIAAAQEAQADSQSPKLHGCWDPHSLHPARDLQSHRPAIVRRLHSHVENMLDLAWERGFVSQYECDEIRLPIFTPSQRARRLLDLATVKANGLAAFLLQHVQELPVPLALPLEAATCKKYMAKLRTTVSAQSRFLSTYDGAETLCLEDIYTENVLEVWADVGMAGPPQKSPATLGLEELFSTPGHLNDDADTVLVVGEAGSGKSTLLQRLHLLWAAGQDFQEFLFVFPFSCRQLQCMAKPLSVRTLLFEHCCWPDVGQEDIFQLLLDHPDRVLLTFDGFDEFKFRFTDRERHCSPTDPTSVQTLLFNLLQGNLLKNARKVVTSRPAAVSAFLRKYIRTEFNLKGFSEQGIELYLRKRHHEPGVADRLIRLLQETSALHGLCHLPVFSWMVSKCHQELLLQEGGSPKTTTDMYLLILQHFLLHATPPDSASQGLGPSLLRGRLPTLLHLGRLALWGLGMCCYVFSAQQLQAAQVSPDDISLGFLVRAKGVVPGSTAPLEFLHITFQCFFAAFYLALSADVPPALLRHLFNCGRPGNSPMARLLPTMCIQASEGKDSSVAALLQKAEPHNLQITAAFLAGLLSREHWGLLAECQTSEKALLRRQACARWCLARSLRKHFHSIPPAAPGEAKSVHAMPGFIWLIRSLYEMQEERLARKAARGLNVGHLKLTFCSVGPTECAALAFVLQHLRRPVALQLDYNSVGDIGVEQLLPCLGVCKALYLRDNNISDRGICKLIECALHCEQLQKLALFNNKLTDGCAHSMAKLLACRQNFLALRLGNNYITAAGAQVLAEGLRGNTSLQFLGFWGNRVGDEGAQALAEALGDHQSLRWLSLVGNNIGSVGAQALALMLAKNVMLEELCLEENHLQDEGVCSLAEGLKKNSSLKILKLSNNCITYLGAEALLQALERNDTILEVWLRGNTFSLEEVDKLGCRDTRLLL

Tumor necrosis factor [12] = target: T2, Tumor necrosis factor; experiment: analog potency on TNFa NF-kB signaling – cell-based, revised, SAR follow-up (AID 2337); format: functional
[13] = target: T1, Nucleotide-binding oligomerization domain-containing protein 1; experiment: blockers of NOD1 pathway activity – revised, SAR follow-up (AID 2333); format: functional
HEK293 [14] = experiment: cells; conditions: Homo sapiens
[15] = A Cell Based Secondary Assay To Explore Cytotoxicity of Compounds that Sensitize Mycobacterium Tuberculosis to Beta-Lactam Antibiotics.; format: functional
[16] = target: T4, Microphthalmia-associated transcription factor (Homo sapiens, UniProt O75030); experiment: reducers of TRPM1 reporter luminescence, concentration series – cell-based, SK-MEL-5, cherry-picked, set 3, MITF inhibitor project, dose response (AID 493073); format: functional;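 also: SK-MEL-5 melanoma cells with luciferase driven by the MITF target TRPM1 promoter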
T4 sequence (O75030 whole entry): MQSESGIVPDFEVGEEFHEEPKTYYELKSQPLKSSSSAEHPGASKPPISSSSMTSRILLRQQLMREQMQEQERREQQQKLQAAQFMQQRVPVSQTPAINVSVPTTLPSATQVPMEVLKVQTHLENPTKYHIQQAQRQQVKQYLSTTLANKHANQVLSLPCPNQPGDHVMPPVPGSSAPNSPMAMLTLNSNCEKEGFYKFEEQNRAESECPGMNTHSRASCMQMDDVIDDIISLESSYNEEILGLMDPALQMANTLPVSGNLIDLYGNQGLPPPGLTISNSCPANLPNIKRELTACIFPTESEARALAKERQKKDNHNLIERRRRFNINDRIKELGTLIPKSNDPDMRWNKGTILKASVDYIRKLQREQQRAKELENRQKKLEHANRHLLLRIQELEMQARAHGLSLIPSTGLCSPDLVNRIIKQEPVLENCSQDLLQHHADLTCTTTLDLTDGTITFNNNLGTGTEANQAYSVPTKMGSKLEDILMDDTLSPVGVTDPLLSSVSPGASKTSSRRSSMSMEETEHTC

A-375 [17] = experiment: MITF: Counter assay: A375 proliferation Measured in Cell-Based System Using Plate Reader - 2084-03_Inhibitor_Dose_DryPowder_Activity. [Related pubchem assays (depositor defined):AID488944]; format: functional; conditions: Homo sapiens
A-375 [18] = experiment: proliferation inhibition in MITF-low A375 cells – cell-based, cherry-pick samples, set 2, counter-screen for MITF modulator project, dose response (AID 540335); format: functional; conditions: Homo sapiens
[19] = reduction of Shn3 3'UTR-driven luciferase in osteoblasts – cell-based, Clone20 osteoblasts, firefly luciferase, cherry-picked, dose response (AID 624132); format: functional;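 also: firefly luciferase luminescence from reporter carrying the Shn3 3'UTR in osteoblasts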
[20] = loss of viability in HepG2 cells – cell-based, CellTiter-Glo, cherry-picked, cytotoxicity control for Shn3 inhibitor project, dose response (AID 624134); format: functional
[21] = non-specific 3'UTR reporter inhibition in Clone20-Shn3RL – cell-based, Renilla luciferase, cherry-picked, counter-screen for Shn3 inhibitor project, dose response (AID 624133); format: functional
HEK293 [22] = experiment: cells; conditions: Homo sapiens; remark: listed apart in the source
HEK293 [23] = experiment: cells; conditions: Homo sapiens; remark: listed apart in the source
HEK293 [24] = experiment: inhibition of NOD1-driven NF-kB reporter – cell-based, luminescence, uHTS, primary screen (AID 1578); format: functional; conditions: Homo sapiens
HEK293 [25] = experiment: cells; format: functional, cell-based; conditions: Homo sapiens
HEK293 [26] = experiment: cells; format: functional, cell-based; conditions: Homo sapiens; remark: listed apart in the source
[27] = target: T3, Nucleotide-binding oligomerization domain-containing protein 2; experiment: inhibition of NOD2-driven NF-kB reporter – cell-based, luminescence, uHTS, HEK293 (AID 1566); format: functional
HEK293 [28] = experiment: NOD2 signaling inhibitors in MDP-stimulated cells, cell-based, uHTS, luminescence (AID 2001); format: functional; conditions: Homo sapiens
HEK293 [29] = experiment: cells; format: functional, cell-based; conditions: Homo sapiens; remark: listed apart in the source
Nonstructural protein 1 = Nonstructural protein 1 (Influenza A virus, UniProt Q194T2); format: functional, Influenza A virus (A/California/07/2009(H1N1))
Chain of Nonstructural protein 1 (Q194T2 whole entry): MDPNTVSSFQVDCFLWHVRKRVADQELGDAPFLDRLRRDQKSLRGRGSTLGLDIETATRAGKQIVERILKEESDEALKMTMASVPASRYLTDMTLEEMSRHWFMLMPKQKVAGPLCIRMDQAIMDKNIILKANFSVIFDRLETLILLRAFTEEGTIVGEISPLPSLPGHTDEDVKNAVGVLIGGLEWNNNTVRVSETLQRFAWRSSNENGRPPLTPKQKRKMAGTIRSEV

HeLa = experiment: viability loss in HeLa cells – cell-based, 24 h, cherry-picked samples, cytotoxicity control, dose response (AID 504726); format: functional; conditions: Homo sapiens;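 also: potency for cytotoxicity as loss of luminescence signal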
ORF 73 = target: T5, ORF 73 (Human herpesvirus 8, UniProt O40947); experiment: KSHV LANA DNA-binding disruption – biochemical, fluorescence polarization, cherry-picked samples, dose response (AID 504725); parameters: species or system Human gammaherpesvirus 8;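 also: fluorescence polarization of a labeled DNA duplex reporting LANA DNA binding; potency is for inhibitors that block LANA binding to the DNA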
T5 sequence (O40947 whole entry): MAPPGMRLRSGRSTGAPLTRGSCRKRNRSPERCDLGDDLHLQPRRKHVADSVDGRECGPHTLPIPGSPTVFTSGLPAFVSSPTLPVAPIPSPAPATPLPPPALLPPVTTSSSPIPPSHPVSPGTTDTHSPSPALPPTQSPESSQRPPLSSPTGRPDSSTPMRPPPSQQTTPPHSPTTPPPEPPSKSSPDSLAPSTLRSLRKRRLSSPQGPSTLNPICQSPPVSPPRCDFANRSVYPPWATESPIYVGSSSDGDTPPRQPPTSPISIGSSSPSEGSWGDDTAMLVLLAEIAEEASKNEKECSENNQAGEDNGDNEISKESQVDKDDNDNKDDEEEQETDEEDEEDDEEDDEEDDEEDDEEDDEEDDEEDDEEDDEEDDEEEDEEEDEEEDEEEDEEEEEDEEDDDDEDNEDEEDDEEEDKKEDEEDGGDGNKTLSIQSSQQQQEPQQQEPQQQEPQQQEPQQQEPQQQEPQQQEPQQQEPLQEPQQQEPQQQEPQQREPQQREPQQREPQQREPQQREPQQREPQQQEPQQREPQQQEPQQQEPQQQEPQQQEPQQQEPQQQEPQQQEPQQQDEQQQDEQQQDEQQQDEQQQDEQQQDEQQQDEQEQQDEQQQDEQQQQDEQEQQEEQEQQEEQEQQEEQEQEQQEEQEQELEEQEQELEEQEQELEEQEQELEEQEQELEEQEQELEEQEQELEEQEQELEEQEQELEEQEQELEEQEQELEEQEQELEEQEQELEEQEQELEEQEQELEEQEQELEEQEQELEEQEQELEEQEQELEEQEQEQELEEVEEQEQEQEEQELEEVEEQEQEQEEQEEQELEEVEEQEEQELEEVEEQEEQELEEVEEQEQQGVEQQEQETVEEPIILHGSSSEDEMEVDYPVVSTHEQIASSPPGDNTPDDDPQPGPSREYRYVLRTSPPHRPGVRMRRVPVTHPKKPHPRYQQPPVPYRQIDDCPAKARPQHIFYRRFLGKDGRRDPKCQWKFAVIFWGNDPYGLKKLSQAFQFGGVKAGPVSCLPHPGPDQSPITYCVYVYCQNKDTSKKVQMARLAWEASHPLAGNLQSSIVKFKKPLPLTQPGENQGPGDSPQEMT

Cytochrome P450 2D6 = Cytochrome P450 2D6 (Homo sapiens, UniProt P10635);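 also: CYP2D6 member of a cytochrome P450 panel assay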
Chain of Cytochrome P450 2D6 (P10635 whole entry): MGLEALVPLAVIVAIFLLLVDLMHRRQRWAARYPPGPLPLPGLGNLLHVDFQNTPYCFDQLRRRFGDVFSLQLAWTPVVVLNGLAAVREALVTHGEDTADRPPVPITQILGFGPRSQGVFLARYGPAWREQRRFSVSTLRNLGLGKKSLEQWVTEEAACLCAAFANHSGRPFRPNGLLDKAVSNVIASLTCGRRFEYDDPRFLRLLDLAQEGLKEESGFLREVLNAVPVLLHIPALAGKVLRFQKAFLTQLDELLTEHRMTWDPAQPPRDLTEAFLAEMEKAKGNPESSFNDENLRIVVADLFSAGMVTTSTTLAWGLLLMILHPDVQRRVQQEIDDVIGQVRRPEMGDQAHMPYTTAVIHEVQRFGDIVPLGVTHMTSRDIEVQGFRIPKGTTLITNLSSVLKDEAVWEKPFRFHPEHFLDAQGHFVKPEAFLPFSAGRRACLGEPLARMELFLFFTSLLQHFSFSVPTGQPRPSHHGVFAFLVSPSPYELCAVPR

## Cc1cccc(N/N=C(\C(N)=O)C2=NC(C)(C)Cc3ccccc32)c1
[1]
  EC50: 3.43 µM (active)
[2]
  EC50: 13.1 µM (active)
[3]
  EC50: 20.2 µM (active)
[4]
  AC50: 9.41 µM (active)
Vero [5]
  IC50: > 25 µM (active)
Vero [6]
  CC50: > 25 µM (active)

## CCOc1ccc(NC(=O)CSc2nnc(-c3ccccc3)n2N)cc1
[7]
  AC50: 12.1 µM (active)

## Nc1nc2ccccc2n1S(=O)(=O)c1ccc(F)cc1
[8]
  IC50: 4.31 µM (active)
Tumor necrosis factor [9]
  IC50: > 20 µM (inactive)
HEK293 [10]
  IC50: > 20 µM (inactive)
[11]
  IC50: > 20 µM (inactive)

## Cc1ccc(-c2nnn3c2nc(Cl)c2ccccc23)cc1
Vero [5]
  IC50: > 25 µM (active)
Vero [6]
  CC50: 18.4 µM (active)

## CC1Cc2cc(S(=O)(=O)N3CCN(c4ccc([N+](=O)[O-])cc4)CC3)ccc2N1C(=O)C1CC1 (centres undefined)
Tumor necrosis factor [12]
  IC50: 0.236 µM (active)
[13]
  IC50: 0.26 µM (active)
HEK293 [14]
  IC50: 15.2 µM (active)

## O=C(Nc1ccc2nc3n(c(=O)c2c1)CCCC3)c1cc([N+](=O)[O-])ccc1F
[15]
  CC50: 15.1 µM (active)
[16]
  AC50: 11.5 µM (active)
A-375 [17]
  AC50: > 35 µM (active)
A-375 [18]
  AC50: > 35 µM (active)
[19]
  AC50: 0.361 µM (active)
[20]
  AC50: 39.2 µM (active)
[21]
  AC50: 21.8 µM (active)

## Cc1cccc(NC(=O)CSCC(=O)Nc2cc(C(F)(F)F)ccc2N2CCOCC2)c1
HEK293 [22]
  EC50: > 59.6 µM (inactive)
HEK293 [23]
  EC50: > 59.6 µM (inactive)

## CCCN(C(=O)Cc1ccc(S(=O)(=O)N2CCOCC2)s1)c1c(N)n(Cc2ccccc2)c(=O)[nH]c1=O
[7]
  AC50: 39.2 µM (active)

## COc1cc(/C=C2\CCC/C(=C\c3ccc(O)c(OC)c3)C2=O)ccc1O [CYCLOVALONE]
HEK293 [24]
  EC50: 4.94 µM (active)
HEK293 [25]
  IC50: 3.6 µM (active)
HEK293 [26]
  IC50: > 20 µM (inactive)
[27]
  EC50: 9.95 µM (active)
HEK293 [28]
  IC50: 3.75 µM (active)
HEK293 [29]
  IC50: > 20 µM (inactive)
Nonstructural protein 1
  IC50: > 100 µM (active)

## CC(C)(CO)NC(=O)c1ccc2nc(Cc3cccc(Cl)c3)oc2c1
A-375 [17]
  AC50: > 35 µM (active)
A-375 [18]
  AC50: > 35 µM (active)

## COc1ccc(-c2cc(N)n(S(=O)(=O)c3ccc(F)c(C)c3)n2)cc1
[8]
  IC50: > 20 µM (inactive)
Tumor necrosis factor [9]
  IC50: 19.9 µM (active)
HEK293 [10]
  IC50: > 20 µM (inactive)
[11]
  IC50: > 20 µM (inactive)

## CC(C)(C)n1nnnc1C(c1cccnc1)N(Cc1ccccc1)Cc1ccco1 (centres undefined)
HeLa
  AC50: 75.8 µM (active)
ORF 73
  AC50: 0.592 µM (active)
Cytochrome P450 2D6
  AC50: 31.6 µM (inconclusive)
HEK293 [22]
  EC50: > 59.6 µM (inactive)
HEK293 [23]
  EC50: > 59.6 µM (inactive)

From ChEMBL document CHEMBL1201862, “PubChem BioAssay data set” (2004)
